For experiment [1], the system named is APPswe/PS-1 double transgenic mice. Kind of experiment: Classical Morris Water Maze test. The experiment is classed as in vivo. Conditions: 12 month-old APPswe/PS-1 mice, 2.0 mg/kg IP three times per week, four weeks, vs Tg control.
Experiment [2] has the same test system. Kind of experiment: Memory flexibility test (modified Morris Water Maze). As to conditions: 7-month-old APPswe/PS-1 mice, 2.0 mg/kg IP three times per week, four weeks, vs Tg control. In kind it is in vivo.
The subject of experiment [3] is Wnt/β-catenin pathway in cultured rat hippocampal neurons. Kind of experiment: Wnt/β-catenin pathway activation in cultured hippocampal neurons (western blot, immunofluorescence). In kind it is cell-based. The procedure:
Primary culture of rat hippocampal neurons. Rat hippocampal cultures were prepared as previously described (Arrazola et al, 2009). On day 3 of culture, hippocampal cells were treated with […] 1-b-Darabinofuranosylcytosine (AraC) during 24 h to reduce the number of proliferating non-neuronal cells. […] PCR-ARRAY. RNA from hippocampal neurons was extracted using Trizol. Quantification and purity of RNA preparations were checked by absorbance using Nanodrop ND-2000. Only preparations with a 260/280 nm ratio ≧1.8, a 260/230 nm ratio ≧1.7 and no sign of RNA degradations, verified by agarose gel electrophoresis with Gel Red™ were used. Genomic DNA was degraded. Using RT2First-Strand cDNA Synthesis kit (SuperArray), 1 ng total RNA was reverse transcribed and then real-time PCR was performed by adding cDNA directly to PCR Master Mix, containing SYBR Green and ROX. The mixtures were then aliquoted into a 96-well PCR array plates, which profiles the expression of 84 Wnt target genes from rat. The PCR was run on ABI StepOnePlus, with 1 cycle of 10 min at 95° C. followed by 40 cycles of 15s at 95° C. and 1 min at 60° C. Cycle threshold (Ct) values were calculated for all the genes present on the array (Schmittgen & Livak, 2008). Treatment of neuronal cultures. Primary hippocampal cultures of neurons 14 DIV were washed twice in neurobasal medium and maintained for 1 hour. Next ANDRO (10 μM) and 6-BIO (10 μM) were added to different time periods.
Following a time-course treatment, neurons were washed with cold PBS and harvested in 600 μL of cold homogenization buffer (10 mM HEPES pH 7.9; 1.5 mM MgCl2; 10 mM KCl; 1 mM DTT). The cells were disrupted by 20 passed, back and forth, through a syringe of 1mL. Lysates were centrifuged for 6 minutes at 700 g at 4° C. and the supernatant was removed. The precipitate was washed in 100 μL of buffer (20 mM HEPES pH=7.9; 420 mM NaCl; 1.5 mM MgCl2; 0.2 mM EDTA; 1 mM DTT; 25% glicerol) and centrifuged again to generate nuclear fraction. Cytosolic fractions were generated from the supernatantat 100.000 g […] 4° C. Both buffers were supplemented with protease inhibitors and serine-phosphatase. Nuclear and cytosolic fractions were subsequently subjected to western blotting.
(§1) The samples were dissected on ice and immediately frozen in liquid nitrogen or processed has previously detailed (Inestrosa et al, 2011). Briefly, tissues were homogenized in RIPA buffer (10 mM Tris-Cl, pH 7.4, EDTA 5 mM, 1% NP-40, 1% sodium deoxycholate, and 1% SDS) supplemented with a protease inhibitor mixture (1 mM PMSF, 2 μg/mL aprotinin, 1 μg/mL pepstatin and 10 μg/mL benzamidine) and phosphatase inhibitors (25 mMNaF, 100 mM Na3VO4, 1 mM EDTA and 30 μM Na4P207) using a Potter homogenizator and then passed sequentially through different caliber syringes. Protein samples were centrifuged at 14000 rpm at 4° C. twice for 15 min. Protein concentration was determined using the BCA Protein Assay Kit (Pierce). Samples were resolved by […] 10% SDS-PAGE and transferred to a PVDF membrane. The reactions were followed by incubation with anti-mouse, anti-goat or anti-rabbit IgG peroxidase conjugated (Pierce, Rockford, Ill.) and developed using an ECL kit (Western Lightning Plus ECL, PerkinElmer).
Hippocampal neurons were seeded onto poly-L-lysine-coated cover slips in 24-well culture plates at a density of 5×10^4 cells per well, as described previously (Arrazola et al, 2009; Chacon et al, 2008). A mouse monoclonal anti-b-catenin was used. Cells were extensively washed with PBS and then incubated with Alexa 488-conjugated anti-mouse IgG for 1 h at room temperature. Cells were mounted in mounting medium and analyzed in a Carl-Zeiss Confocal Laser Microscope.
In general terms: Immunoblotting shows a protein as a band on a membrane.

In experiment [4] the test system is Wnt/β-catenin pathway in hippocampal slices. Kind of experiment: Wnt pathway mechanism in hippocampal slices (sFRP, Dkk-1, Dvl-3 mobility shift, time course). In kind it is cell-based, mice. The procedure:
Slice preparation. […] Transverse slices (250-300 μm) from the dorsal hippocampus were cut under oxygen-saturated cold artificial cerebrospinal fluid using a Vibroslice microtome (VSL, World Precision Instruments, Inc WPI, Sarasota, Fla.). After obtained, slices were incubated in ACSF for at least than one hour at room temperature, in order to stabilize activity. In every moment during dissection, slicing and experimentation slices were oxygenated with 95% oxygen-5% carbon dioxide.
as §1, with “Briefly,” for “The samples were dissected on ice and immediately frozen in liquid nitrogen or processed has previously detailed (Inestrosa et al, 2011). Briefly,”, “Protein samples were centrifuged at 14000 rpm at 4° C. twice for 15 min.” left out

Experiment [5] has as its system APPswe/PS-1 double transgenic mice. As to the kind of experiment: Slot blot of Aβ oligomers (A11 antibody) in hippocampus of treated mice. The experiment is classed as in vivo.
The mark [6] stands for this setting: hippocampal neurons, ANDRO 10 μM.
Setting [7] is: hippocampal neurons, different concentrations for 6 h.

For the molecule `C=C1CC[C@@H]2C(C)(CO)C(O)CC[C@@]2(C)C1C/C=C1/C(=O)OCC1O` (stereo in doubt) [ANDRO, 3-(2-(Decahydro-6-hydroxy-5-(hydroxymethyl)-5,8a-dimethyl-2-methylenenaphthyl)ethylidene)dihydro-4-hydroxyfuran-2(3H)-one], in experiment [1], the escape latency result is recorded as “significantly lower escape latency values”. Besides, the “number of trial to criterion of learning” value in experiment [2] is given as “reduction in the number of trial to criterion of learning”. The “β-catenin levels by immunofluorescence” value in experiment [3] (5 μM for 6 h, neurons at 14 DIV) was “increased β-catenin levels”. In addition, in experiment [3] (setting [6]), the “time of maximum increase of the inhibited form of GSK-3β” value was 6 h; the “time of peak accumulation of cytoplasmic and nuclear β-catenin” value was 9 h. In addition, in experiment [3] (setting [7]), the “accumulation of β-catenin” value is reported as “accumulation of β-catenin in a concentration-dependent manner”, the “active form of GSK-3β (phospho-Tyr-216)” value is recorded as “decrease in the active form (phosphor-Tyr-216)” and the “inhibited form of GSK-3β (phospho-Ser-9)” value is reported as “increase in the inhibited form of the enzyme (phospho-Ser-9)”. Moreover, in experiment [4] (compared to Wnt-3a treatment), the “speed of increase in GSK3β pSer-9 and decrease in pTyr-216” value is reported as “faster”. Moreover, in experiment [4] (hippocampal slices, 1 h, western blot), the “mobility shift (phosphorylation) of Dvl-3” value is reported as “does not induce a mobility shift of Dvl-3”. Also, the “time at which total levels of β-catenin increased” value in experiment [4] (slices from 2 month-old wild-type mice, 5 μM ANDRO, Wnt3a conditioned medium or 10 μM 6-B10) is 15 min. Besides, in experiment [5] (7 month-old APPswe/PS-1 mice), the “level of Aβ oligomers (A11 slot-blot)” value is “did not show significant changes”. Also, the “levels of Aβ-oligomers (A11 slot blot)” value in experiment [5] (FIG. 3G mice (legend: old APPswe/PS-1)) was “did not show significant changes”.
